Consider eight molecules from patent US20260015341A1, “PI3K INHIBITOR, PREPARATION METHOD THEREFOR, AND USE THEREOF” (HINOVA PHARMACEUTICALS INC., priority 2022, published 2026).

Where only a bound is given, the exact number is not on record here.

One data set relates to MCF-10A cells. As to the kind of experiment: Inhibitory effects on the proliferation of MCF-10A cells (CCK8). The note with it: Homo sapiens, 144 h, 6 days. The class given is cell-based. The protocol:
Experimental Example 2: Experiment of Inhibitory Effects on the Proliferation of MCF-10A Cells
MCF-10A cells (Cobioer Bio. #CBP60419MCF) were diluted with complete medium (Cobioer Bio. #CBP60419), seeded in 96-well plate (Corning #3599) at 500 cells/well, and then cultured for 24 h. Then, gradiently diluted compounds were added (starting at a final concentration of 10 μM, 3-fold dilution, 9 dose concentrations), and the final volume was adjusted to 100 μL/well. The plate was incubated at 37° C. under 5% CO2 for 6 days. After the cultivation was completed, CCK8 reagent (Signalway Antibody Bio. #CP002) was added at 10 μL/well, and then the plate was further incubated at 37° C. under 5% CO2 for 2-3 hours. The OD450 nm value was obtained by a microplate reader.
The results are shown in the MCF-OA IC50 column in Table 2.

The next data set is described as follows: Pharmacokinetics in rats. The class given is in vivo, SD rats. The note with it: rat; for AUC / half-life / clearance / Vd: male, SD, plasma; for Vd: read-out: VSS. The protocol: Experimental Example 4: The Pharmacokinetics of the Compound According to the Present Invention in Rats
(§1) 9 healthy adult male SD rats (three for each administration route of each compound) were fasted overnight (>12 h) before gavage, with free access to water; 4 hours after administration, rats could take food, and were administered via tail vein injection and gastric lavage, respectively. At different time points, intravenous blood sample was collected and anti-coagulated, wherein the anticoagulant was EDTA-K2 (the sample was placed in an ice bath after blood collection). The plasma was separated by centrifugation at 4° C. and 6000 g for 5 min, and stored at −70° C. for testing. The plasma concentration of compounds was determined by LC-MS/MS method.
(§2) The plasma concentration of compound at all time points was used to calculate the main pharmacokinetic parameters with Winnolin 8.3 non-compartmental model.
(§3) The area under the concentration-time curve AUCall value: calculated using the trapezoidal method; AUCinf=AUCall+Ct/ke, Ct is the plasma concentration at the last measurable time point, and ke is the elimination rate constant;
The elimination half life t1/2=0.693/ke;
(§4) The clearance rate CL=D/AUCinf (D is the administration dosage);
The volume of distribution at steady state Vss=CL×MRT, The mean retention time MRT=AUMC/AUC;

The test system of another data set is T47D cells. As to the kind of experiment: Inhibitory effects on the proliferation of T47D cells (CellTiter-Glo). The class given is cell-based. The note with it: Homo sapiens, 168 h, 7 days. On the procedure:
Experimental Example 3: Experiment of Inhibitory Effects on the Proliferation of T47D Cells
T47D cells (ATCC. #HTB-133) were diluted with RPMI 1640 (Gibco #22400-089) containing 10% FBS (Hyclone #SH30084.03), seeded in 96-well plate (Biosharp #BS-MP-96W) at 1000 cells/well, and then cultured for 24 h. Then, gradiently diluted compounds were added (starting at a final concentration of 10 μM, 3-fold dilution, 9 dose concentrations), and the final volume was adjusted to 150 μL/well. The plate was incubated at 37° C. under […] for 7 days. After the cultivation was completed, CellTiter-Glo reagent (Promega #G7573) was added at 75 μL/well, and then the plate was further incubated at 25° C. for 10 min. After that, the chemiluminescence value was read using an instrument.
The results are shown in the T47D IC50 column in Table 2.
In general terms: ATP-based viability assays read luminescence as a measure of living cells.

In data set [1] the target is PI3Kα[WT]/[E542K]/[E545K]/[H1047R]/PI3Kβ/γ/δ. As to the kind of experiment: PI3K enzyme activity assay (ADP-Glo). The note with it: PI3K kinase reaction, isoform not given. The format is biochemical. The protocol: Experimental Example 1: PI3Kα[WT]/[E542K]/[E545K]/[H1047R]/PI3Kβ/γ/δ Enzyme Activity Assay
PI3Kα[WT], PI3Kα[E542K], PI3Kα[E545K], PI3Kα[H1047R], PI3Kβ, PI3Kγ and PI3Kδ kinase reaction was performed in 384-well plate (PerkinElmer, #6008280), with a reaction system of 4 μL. PI3Kα[WT] enzyme solution (Promega, #V1721) or PI3Kα[E542K] enzyme solution (CarnaBio, #11-413-20N) or PI3Kα[E545K] enzyme solution (CarnaBio, #11-414-20N) or PI3Kα[H1047R] enzyme solution (Promega, #V1741) or PI3Kβ enzyme solution (Promega, #V1751) or PI3Kγ enzyme solution (ThermoFisher, #PV4786) or PI3Kδ enzyme solution (ThermoFisher, #PV6451) were added to 384-well plate, and then gradiently diluted compounds were added (starting at a final concentration of 10 μM, 3-fold dilution, 10 doses), followed by adding PIP2: 3PS (Promega, #V1701) and ATP solution (Promega, #V915B) to the plate. After incubation at 25° C. for 1 h, ADP-Glo reagent buffer (Promega, #V9102) was added to each well. The plate was sealed and incubated at 25° C. for 40 min, and then 10 μL of ADP-Glo detection buffer (Promega, #V9102) was added to each well. After incubating at 25° C. for 40 min, the chemiluminescence value was read using an instrument.
The experimental results are shown in the ADP Glo IC50 column in Table 2.
For orientation: In ADP-Glo the light output rises with the ADP produced.

Data set [2] can be described thus: Pharmacokinetics in beagle dogs. The class given is in vivo. The note with it: beagle dog. On the procedure: Experimental Example 5: The Pharmacokinetics of the Compound According to the Present Invention in Beagle Dogs
as §1, with “beagle dogs” for “SD rats”, “forelimb venous” for “intravenous”, “3200” for “4° C. and 6000”, “10” for “5”
as §2, §3, §4
The volume of distribution at steady state Vss=CL×MRT. The mean retention time MRT=AUMC/AUC;

Setting [3] is: iv (tail vein injection), 1 mg/kg.
[4] abbreviates: male, plasma, po, ig (intragastric), 3 mg/kg.
Where [5] appears, read: male, plasma, po, ig (intragastric), 10 mg/kg.

`Cc1cc([C@@H](C)Nc2ccc(Cl)nc2C(=O)O)c2nc(-c3ccccc3)n(C)c(=O)c2c1` [Compound 115]: in the data set with MCF-10A cells, the IC50 – broadly, the concentration that inhibits the measured activity by half – is more than 5 µM. In the data set “Pharmacokinetics in rats” (po, ig (intragastric), 3 mg/kg), the AUC (as a rule, the area under the concentration-time curve, a measure of exposure) turned out to be 2360 ng·h/mL and the half-life – broadly, the time in which the quantity being followed falls by half – was 3.83 h. Besides, in the data set “Pharmacokinetics in rats” (setting [3]), the AUC turned out to be 978 ng·h/mL; the clearance – broadly, the rate of elimination divided by the concentration – stood at 17.5 mL/min/kg; the half-life was 3.79 h; the Vd is 2.14 L/kg. This molecule came in with a F in “Pharmacokinetics in rats” (ig (intragastric), 3 mg/kg) of 80.3%. Also, the IC50 in the data set on T47D cells is more than 5 µM.

Consider `Cc1cc([C@@H](C)Nc2cccc3c2C(=O)NC3=O)c2oc(-c3ccc(F)cc3F)cc(=O)c2c1` [Compound 55], for which the IC50 in data set [1] was 1 to 5 µM; with MCF-10A cells, more than 5 µM; in the data set on T47D cells, more than 5 µM.

With `Cc1cc([C@@H](C)Nc2ccc(Cl)nc2C(=O)O)c2nc(-c3ccc(F)cc3)n(C)c(=O)c2c1` [Compound 65], the figures for the half-maximal inhibitory concentration (IC50) in the data set on MCF-10A cells and with T47D cells were more than 5 µM and less than 1 µM, respectively. Besides, the F in data set [2] (ig (intragastric), 3 mg/kg) came to 27.1%; in data set [2] (ig (intragastric), 10 mg/kg) it was 24.9%; in the data set “Pharmacokinetics in rats” (ig (intragastric), 3 mg/kg) it was 79.6%. In addition, the AUC in data set [2] (setting [4]) worked out at 760 ng·h/mL; in data set [2] (setting [5]), 2370 ng·h/mL; in data set [2] (male, plasma, iv, 1 mg/kg) it was 954 ng·h/mL; in the data set “Pharmacokinetics in rats” (po, ig (intragastric), 3 mg/kg) it was 3430 ng·h/mL; in “Pharmacokinetics in rats” (setting [3]), 1000 ng·h/mL. The half-life is 2.13 h in data set [2] (setting [4]); 4.19 h in data set [2] (setting [5]); 2.1 h in data set [2] (male, plasma, iv, 1 mg/kg); 1.34 h in “Pharmacokinetics in rats” (po, ig (intragastric), 3 mg/kg); 2.95 h in the data set “Pharmacokinetics in rats” (setting [3]). For the same molecule, the clearance in data set [2] (male, plasma, iv, 1 mg/kg) came out at 17.4 mL/min/kg; in the data set “Pharmacokinetics in rats” (setting [3]), 16.3 mL/min/kg. In addition, the Vd in data set [2] (male, plasma, iv, 1 mg/kg, read-out: VSS) turned out to be 0.828 L/kg; in the data set “Pharmacokinetics in rats” (setting [3]), 1.71 L/kg.

As to `[2H]C([2H])([2H])NC(=O)c1ncccc1N[C@H](C)c1cc(C)cc2c(=O)cc(-c3ccc(F)cc3F)oc12` [Compound 48, (R)-3-((1-(2-(2,4-difluorophenyl)-6-methyl-4-oxo-4H-chromen-8-yl)ethyl)amino)-N-(methyl-d3)picolinamide], the IC50 in data set [1] is 1 to 5 µM; with MCF-10A cells, more than 5 µM; with T47D cells it was 1 to 5 µM.

As for `Cc1cc([C@@H](C)Nc2ccccc2C(O)C(F)(F)F)c2oc(-c3ccc(F)cc3F)cc(=O)c2c1` (stereo partly drawn) [Compound 57, 2-(2,4-difluorophenyl)-6-methyl-8-((1R)-1-((2-(2,2,2-trifluoro-1-hydroxyethyl)phenyl)amino)ethyl)-4H-chromen-4-one], the IC50 was less than 1 µM in data set [1], more than 5 µM in the data set with MCF-10A cells and more than 5 µM in the data set with T47D cells.

`Cc1cc([C@@H](C)Nc2ccsc2C(=O)O)c2nc(-c3ccc(F)cn3)n(C)c(=O)c2c1` [Compound 82]: the IC50 in data set [1] was less than 1 µM; in the data set on MCF-10A cells it was more than 5 µM; in the data set on T47D cells, more than 5 µM.

For the molecule `Cc1cc([C@@H](C)Nc2cccc(F)c2C(=O)O)c2nc(-c3ccc(F)cc3)n(C)c(=O)c2c1` [Compound 72], the IC50 was less than 1 µM in data set [1], more than 5 µM in the data set on MCF-10A cells and 1 to 5 µM in the data set with T47D cells.

As to `Cc1cc([C@@H](C)Nc2ccccc2C(=O)O)c2oc(C3CCC(F)(F)CC3)cc(=O)c2c1` [Compound 58, (R)-2-((1-(2-(4,4-difluorocyclohexyl)-6-methyl-4-oxo-4H-chromen-8-yl)ethyl)amino)benzoic Acid], the IC50 in data set [1] is less than 1 µM; in the data set with MCF-10A cells, more than 5 µM; in the data set on T47D cells, less than 1 µM.
